We go through 102 molecules from PubChem BioAssay AID1996.

In brackets after ≈: the same amount, converted by molar mass.

Broadly, the solubility (kinetic) is solubility judged after dilution from a stock solution rather than from solid.

For this series the following is noted: buffer; pH 7.4; 200.0 µM.
Turning to `Cc1cc(C(=O)N2C(C)CCCC2C)no1` (configuration not stated), the kinetic solubility is > 33.3 µg/mL.
The result for `Cc1cc(C)c2nc(SCC(=O)Nc3cc(C)on3)c(C)cc2c1` reads 0.3 µg/mL (≈ 0.879 µM).
The result for `O=C(NCc1ccco1)c1ccc(Cl)nc1` reads > 35.5 µg/mL; that for `O=C(COC(=O)/C=C/c1cccc(C(F)(F)F)c1)NC(=O)NCc1ccco1`, 4.5 µg/mL (≈ 11.4 µM); that for `COc1cccc(CNCC(=O)NC(=O)NC2CCCC2)c1.O=C(O)C(=O)O`, > 59.3 µg/mL.
The result for `O=[N+]([O-])c1ccc([N+](=O)[O-])c(Nc2ccc(N3CCOCC3)cc2)c1` reads < 0.2 µg/mL; that for `C(=C\c1ccccc1)/CN1CCN(Cc2ccc3c(c2)OCO3)CC1`, 43 µg/mL (≈ 128 µM); that for `Cc1cc(Cl)ccc1OCCCC(=O)NCc1ccccn1`, > 47.8 µg/mL.
On to `Cc1cccc(N/C=C/C(=O)c2ccc(Cl)cc2)c1`, for which the solubility (kinetic) is < 0.6 µg/mL.
The result for `CCOC(=O)COc1c(Cl)cc(/C=C2\N=C(C)OC2=O)cc1OC` reads 46.5 µg/mL (≈ 131 µM); that for `COc1ccc(/C=C/C(=O)c2cc3c(cc2N)OCO3)cc1`, 1.6 µg/mL (≈ 5.38 µM); that for `CCOC(=O)c1cc2c(cn1)[nH]c1ccccc12`, 7.5 µg/mL (≈ 31.2 µM).
As to `O=C(NCc1nc(-c2ccc(Cl)cc2)no1)c1ccco1`, the solubility (kinetic) stood at 9.4 µg/mL (≈ 31 µM).
The result for `N[C@@H](Cc1ccccc1)C(=O)N1C[C@H]2C[C@@H](C1)c1cccc(=O)n1C2` reads 49 µg/mL (≈ 145 µM); that for `CC(=O)c1ccc(NC(=S)NCCCn2ccnc2)cc1`, > 45.4 µg/mL.
Take `COc1cc(C(=O)OCC(=O)Nc2ccc(S(=O)(=O)NC3=NCCCCC3)cc2)cc(OC)c1OC`: the kinetic solubility amounted to 73.5 µg/mL (≈ 141 µM).
As for `O=C(COC(=O)Cc1ccsc1)Nc1ccccc1Cl`, the figure is > 46.5 µg/mL; as for `CC1CCCC(C)N1S(=O)(=O)c1ccc(Cl)cc1` (configuration not stated), 2.7 µg/mL (≈ 9.38 µM).
For the molecule `CCS(=O)(=O)N1CCN=C1SCc1ccccc1`, the solubility (kinetic) is > 42.7 µg/mL.
The result for `O=C(Cc1ccc(Cl)cc1)Nc1ccc2oc(=O)ccc2c1` reads 2.9 µg/mL (≈ 9.24 µM).
The result for `O=S(=O)(c1ccccc1)N1CCN2CCCC2C1` (configuration not stated) reads > 40 µg/mL; that for `C=CCn1c(SC(F)F)nc2scc(-c3ccco3)c2c1=O`, < 0.4 µg/mL.
The result for `Cc1ccc(CCC(=O)Nc2ccc(CC(=O)O)cc2)o1` reads > 43.1 µg/mL; that for `O=C(O)CCC(=O)Nc1ccc(Br)cc1C(=O)c1ccccc1Cl`, > 61.6 µg/mL.
With `CCNC(=S)Nc1ccc(Cl)c([N+](=O)[O-])c1`, the solubility (kinetic) is > 39 µg/mL.
For the molecule `NS(=O)(=O)c1ccc(CCNC(=O)NC2CCCCC2)cc1`, the kinetic solubility was > 48.8 µg/mL.
The result for `COc1ccc(CNC(=O)CN(C)CC(=O)Nc2ccccc2Br)cc1` reads > 63 µg/mL.
Molecule `O=C(Nc1ccc(O)cc1)c1ccc(NC(=O)c2ccco2)cc1` came in with a solubility (kinetic) of 1.8 µg/mL (≈ 5.58 µM).
As for `COc1ccc(NS(=O)(=O)c2cccc(C(=O)O)c2)cc1S(=O)(=O)N1CCOCC1`, the figure is > 68.5 µg/mL.
On to `CC(=O)N[C@@H](Cc1c[nH]c2ccccc12)C(=O)NCc1ccccc1`, for which the kinetic solubility was > 50.3 µg/mL.
For `COc1ccc(CCNC(=O)C2CCC(=O)N2S(=O)(=O)c2ccc(C)cc2)cc1` (configuration not stated), the solubility (kinetic) is 61.2 µg/mL (≈ 147 µM).
Turning to `O=S1(=O)CCC(NC(=S)Nc2ccc3ccccc3c2)C1` (configuration not stated), the solubility (kinetic) amounted to 15.3 µg/mL (≈ 47.7 µM).
The result for `COc1ccc(OCC(=O)NC2CCCc3ccccc32)cc1` (configuration not stated) reads 42.4 µg/mL (≈ 136 µM); that for `c1ccc2[nH]c(SN3CCOCC3)nc2c1`, 10.8 µg/mL (≈ 45.9 µM).
As for `Cc1cc(F)ccc1NC(=S)NCCc1ccccc1`, the figure is 22.5 µg/mL (≈ 78 µM); as for `Cc1ccc(CN2CCN(CC(=O)NCc3ccccc3)CC2)cc1`, 2.2 µg/mL (≈ 6.52 µM); as for `CCOc1ccccc1NC(=O)C(c1ccccc1)N1CCN(CC(=O)N2CCCC2)CC1` (configuration not stated), > 67.6 µg/mL.
As for `NC(=O)CSc1ccc(S(=O)(=O)N2CCOCC2)cn1`, the figure is > 47.6 µg/mL; as for `COc1ccccc1N(C)S(=O)(=O)c1ccc(C(=O)Nc2ccc(C(N)=O)cc2)cc1`, 6.1 µg/mL (≈ 13.9 µM); as for `Cc1ccc(C(=O)Nc2ccccc2C(=O)NCc2ccco2)cc1`, 4.6 µg/mL (≈ 13.8 µM).
In the case of `Cc1ccc(Nc2ccc([N+](=O)[O-])cn2)cc1Cl`, the kinetic solubility is < 0.2 µg/mL.
`N#Cc1cc(Sc2ccccn2)c([N+](=O)[O-])cc1C#N`: the solubility (kinetic) was > 42.3 µg/mL.
In the case of `O=C(NCCNC(=O)c1ccccn1)c1ccc(-c2ccccc2)cc1`, the solubility (kinetic) was 3.3 µg/mL (≈ 9.55 µM).
The result for `COc1cccc(NC(=O)c2cnc(SC)nc2C)c1` reads > 43.4 µg/mL.
The result for `CCOc1ncccc1C(=O)Nc1ccc(S(=O)(=O)Nc2cc(C)nc(C)n2)cc1` reads > 64.1 µg/mL; that for `N/C(=N\OC(=O)c1ccc(Cl)cc1[N+](=O)[O-])c1ccccn1`, 3 µg/mL (≈ 9.35 µM); that for `C/C(=C/c1ccccc1)C(=O)N1CCN(c2ccccc2F)CC1`, 35.6 µg/mL (≈ 110 µM).
As to `CCOc1cccc(-c2nnc(SCC(=O)NC3CC3)n2C)c1`, the kinetic solubility is > 49.9 µg/mL.
As for `CCOc1ncccc1C(=O)Nc1cc(C(F)(F)F)ccc1N1CCOCC1`, the figure is 4.1 µg/mL (≈ 10.4 µM); as for `NS(=O)(=O)c1ccc(CCNC(=O)c2ccc3c(=O)n4c(nc3c2)CCCCC4)cc1`, 8.2 µg/mL (≈ 18.6 µM); as for `CC(C)N1C(=O)CCC1C(=O)NCc1ccc(F)cc1Cl` (configuration not stated), > 46.9 µg/mL.
As for `CN(C)S(=O)(=O)c1ccc(Cl)c(C(=O)OCC(=O)c2ccco2)c1`, the solubility (kinetic) was > 55.8 µg/mL.
As for `CCOC(=O)CC1C(=O)NCCN1C(=O)c1ccc(Cl)cc1` (configuration not stated), the figure is > 48.7 µg/mL; as for `Cc1ccc(Oc2ncnc(N)c2[N+](=O)[O-])cc1C`, 4.8 µg/mL (≈ 18.4 µM).
With `COC(=O)c1ccsc1-n1cc(C#N)c(=O)n(C)c1=O`, the kinetic solubility is > 43.7 µg/mL.
`Cc1ccc(C(=O)Nc2cccc3ccccc23)o1` displayed a solubility (kinetic) of 25.9 µg/mL (≈ 103 µM).
The result for `COc1ccc(-c2oc(=O)n(C)c2-c2ccc(OC)cc2)cc1` reads 17.3 µg/mL (≈ 55.6 µM); that for `COc1ccc(-n2ccc3ccccc32)cc1`, < 0.5 µg/mL; that for `Cc1c(C)c(C)c(S(=O)(=O)NCCc2ccncc2)c(C)c1C`, 2 µg/mL (≈ 6.02 µM).
The result for `COc1ccccc1OCCNC(=O)C1CCN(C(C)=O)CC1` reads > 48.1 µg/mL; that for `COc1ccc(OC)c(N2C(=O)CCCC2=O)c1`, 24.7 µg/mL (≈ 99.1 µM).
On to `CCCCN(C)C1CCN(C(=S)Nc2cccc(OC)c2)CC1`, for which the kinetic solubility is > 50.3 µg/mL.
As for `Cc1c(Cl)cccc1NC(=O)c1ccco1`, the figure is > 35.4 µg/mL; as for `CCOC(=O)c1ccc(N2C(=O)CC(C)(CC)CC2=O)cc1`, > 45.5 µg/mL.
In turn, `COc1ccc2c(c1)CCC/C2=N/OC(=O)c1ccccc1OC` returned a solubility (kinetic) of 2.6 µg/mL (≈ 7.99 µM).
With `CC(=O)c1ccc(Oc2nc3c(c(=O)n(C)c(=O)n3C)n2C)cc1`, the kinetic solubility is 9.1 µg/mL (≈ 27.7 µM).
`C=CCn1c(SCCCC)nc([O-])cc1=O.[NH4+]`: the solubility (kinetic) was determined as 22.4 µg/mL.
The result for `O=C(Nc1ccc2c(c1)OCCO2)C(=O)NC1CC1` reads 30.8 µg/mL (≈ 117 µM).
For `COc1ccccc1C1CCN(c2ccc([N+](=O)[O-])c(OC)c2)CC1`, the solubility (kinetic) is < 0.4 µg/mL.
As for `Cc1cc(C)cc(N2C(N)=NC(N)=NC2c2ccccc2F)c1.Cl` (configuration not stated), the figure is > 52.2 µg/mL; as for `Nc1ccncc1N`, 12.2 µg/mL (≈ 112 µM).
As for `COc1cccc(C(=O)Nc2ccccc2C(=O)NC2CC2)c1`, the figure is 11.9 µg/mL (≈ 38.3 µM); as for `Cc1cc(OCCCC(=O)NCCc2ccccn2)ccc1Cl`, > 49.9 µg/mL; as for `CCc1nonc1NC(=O)c1oc2c(C)c(C)ccc2c1C`, 0.6 µg/mL (≈ 2 µM).
As for `COc1ccc(NC(=O)CC(Cc2ccc(Cl)cc2)C(=O)O)cc1` (configuration not stated), the figure is > 52.2 µg/mL.
Take `CCCc1nc(SCC(=O)NC2CCCC2)c2ccccc2n1`: the kinetic solubility came out at 1.9 µg/mL (≈ 5.77 µM).
As for `COc1cccc(N2CCN(C(=O)c3ccc(-c4ccccc4)cc3)CC2)c1`, the figure is 0.8 µg/mL (≈ 2.15 µM); as for `CN(Cc1ccccc1C#N)S(=O)(=O)c1cccs1`, 34.8 µg/mL (≈ 119 µM); as for `CNC(=O)CCN(Cc1ccco1)S(=O)(=O)c1ccc(OC)c(OC)c1`, 56.2 µg/mL (≈ 147 µM).
The result for `Cc1c(Cl)cccc1NC(=S)NC1CCN(C(C)C)CC1` reads > 48.9 µg/mL.
As for `NC1CCN(c2c(F)cc3c(=O)c(C(=O)O)cn(C4CC4)c3c2Cl)C1` (configuration not stated), the solubility (kinetic) was > 54.9 µg/mL.
With `O=C(Cc1ccc(Br)cc1)N1CCCC1`, the kinetic solubility turned out to be 37.6 µg/mL (≈ 140 µM).
Turning to `S=C(NC1CC1)N1CCCc2ccccc21`, the solubility (kinetic) was 33 µg/mL (≈ 142 µM).
As for `COc1ccccc1NC(=O)C1CCCN(C(=O)NCc2ccccc2)C1` (configuration not stated), the figure is > 55.1 µg/mL; as for `Nc1ccc(-c2cnc[nH]2)cc1[N+](=O)[O-]`, > 30.6 µg/mL.
The result for `Nc1nc2c([N+](=O)[O-])cccc2s1` reads 23 µg/mL (≈ 118 µM); that for `COc1ccc(N=C2NC(=O)/C(=C/c3ccco3)S2)cc1`, 1.6 µg/mL (≈ 5.33 µM).
As for `CNc1ccc(Br)cc1C(O)c1ccccc1` (configuration not stated), the figure is 34.7 µg/mL (≈ 119 µM).
With `COc1ccccc1C1CCN(C(=O)c2ccc(C(C)(C)C)cc2)CC1`, the solubility (kinetic) amounted to 3.1 µg/mL (≈ 8.82 µM).
The result for `CSc1ccc(/C=C/C(=O)NC(=O)c2ccccc2O)cc1` reads 3.9 µg/mL (≈ 12.4 µM); that for `COc1ccc(CNC(=S)NC(C)CCc2ccccc2)cc1` (configuration not stated), 14.8 µg/mL (≈ 45.1 µM).
As for `COc1cccc(NC(=O)Nc2nc(SC)ns2)c1`, the figure is 1.3 µg/mL (≈ 4.39 µM); as for `CCC1CCCCN1CC(=O)c1c(C)[nH]c2cc(C)ccc12` (configuration not stated), 33 µg/mL (≈ 111 µM); as for `COc1cc(NS(=O)(=O)c2ccc(NC(=O)/C=C/C(=O)O)cc2)nc(OC)n1`, > 61.3 µg/mL.
In the case of `CC(C)(C)C(=O)O/N=C1\CCS(=O)(=O)c2sccc21`, the solubility (kinetic) was 36.5 µg/mL (≈ 121 µM).
The result for `NC(=O)c1ccc(NC(=O)CCC(=O)c2cccs2)cc1` reads 44.6 µg/mL (≈ 148 µM); that for `O=C(/C=C/Sc1ccc(C(F)(F)F)cn1)c1ccccc1`, < 0.7 µg/mL; that for `CC(Nc1c[nH]c(=O)[nH]c1=O)c1ccccc1` (configuration not stated), 22.3 µg/mL (≈ 96.4 µM).
The result for `CC(C)(C)C(=O)c1cn(Cc2ccccc2)c2ccccc12` reads 1.5 µg/mL (≈ 5.15 µM).
Turning to `O=C(O)c1ccc(S(=O)(=O)N2CCOCC2)o1`, the solubility (kinetic) turned out to be 33.9 µg/mL (≈ 130 µM).
Regarding `O=C(Cc1ccccc1)N1CCN(c2ccc([N+](=O)[O-])cc2)CC1`, the kinetic solubility turned out to be 3.7 µg/mL (≈ 11.4 µM).
As for `CC1CCCN(C(=O)COc2ccc3c(c2)OCO3)C1` (configuration not stated), the figure is > 41.6 µg/mL.
